Assay results taken from US20220281848A1, “PYRAZOLE-SUBSTITUTED PYRROLIDINONES AS HERBICIDES” (FMC Corporation, priority 2019, published 2022).

System: plants
Assay: Test D pre-emergence, other plants of Tables D1 and D3
Type: in vivo
Settings: preemergent, 20 DAA
Description: A formulation containing 50 g/L of the test chemical was prepared by dissolving the active ingredient in a mixture of organic solvents and emulsifier, details of which are provided in the table. This formulation was then mixed with a small, variable amount of acetone to aid dissolution, before addition of a 0.2% v/v aqueous solution of an adjuvant, as the aqueous diluent, to form an aqueous spray solution which contains a predetermined concentration of the active ingredient.
This aqueous spray solution was then sprayed onto plants including maize and wheat that had been seed treated with a herbicide safener, after one day's cultivation (for pre-emergence) or after about 12 days' cultivation (for post-emergence). The plants were grown from seeds sown in standard soil, placed in a glasshouse under controlled conditions (at 24/18° C. or 20/16° C., day/night; 16 h light; 65% humidity). After spray application the plants were then grown in a glasshouse under the same conditions and watered twice daily. After 15 d for post-emergence and 20 DAA for pre-emergence the test was evaluated (100=total damage to plant; 0=no damage to plant).

CCn1nc([C@H]2CN(C)C(=O)[C@@H]2C(=O)Nc2cccc(F)c2F)c2cc(F)ccc21 [Compound 8]
damage to plant (100=total damage to plant; 0=no damage to plant), ABUTH (rate 15): 0
damage to plant (100=total damage to plant; 0=no damage to plant), ABUTH (rate 30): 0
damage to plant (100=total damage to plant; 0=no damage to plant), ABUTH (rate 60): 0
damage to plant (100=total damage to plant; 0=no damage to plant), ABUTH (rate 130): 0
damage to plant (100=total damage to plant; 0=no damage to plant), ABUTH (rate 250): 0
damage to plant (100=total damage to plant; 0=no damage to plant), ABUTH (rate 500): 0
damage to plant (100=total damage to plant; 0=no damage to plant), AMARE (rate 15): 0
damage to plant (100=total damage to plant; 0=no damage to plant), AMARE (rate 30): 0
damage to plant (100=total damage to plant; 0=no damage to plant), AMARE (rate 60): 0
damage to plant (100=total damage to plant; 0=no damage to plant), AMARE (rate 130): 0
damage to plant (100=total damage to plant; 0=no damage to plant), AMARE (rate 250): 0
damage to plant (100=total damage to plant; 0=no damage to plant), AMARE (rate 500): 0
damage to plant (100=total damage to plant; 0=no damage to plant), BIDPI (rate 15): 0
damage to plant (100=total damage to plant; 0=no damage to plant), BIDPI (rate 30): 0
damage to plant (100=total damage to plant; 0=no damage to plant), BIDPI (rate 60): 0
damage to plant (100=total damage to plant; 0=no damage to plant), BIDPI (rate 130): 0
damage to plant (100=total damage to plant; 0=no damage to plant), BIDPI (rate 250): 0
damage to plant (100=total damage to plant; 0=no damage to plant), BIDPI (rate 500): 0
damage to plant (100=total damage to plant; 0=no damage to plant), BRAPL (rate 15): 20
damage to plant (100=total damage to plant; 0=no damage to plant), BRAPL (rate 30): 70
damage to plant (100=total damage to plant; 0=no damage to plant), BRAPL (rate 60): 70
damage to plant (100=total damage to plant; 0=no damage to plant), BRAPL (rate 130): 80
damage to plant (100=total damage to plant; 0=no damage to plant), BRAPL (rate 250): 90
damage to plant (100=total damage to plant; 0=no damage to plant), BRAPL (rate 500): 100
damage to plant (100=total damage to plant; 0=no damage to plant), CYPES (rate 15): 0
damage to plant (100=total damage to plant; 0=no damage to plant), CYPES (rate 30): 0
damage to plant (100=total damage to plant; 0=no damage to plant), CYPES (rate 60): 0
damage to plant (100=total damage to plant; 0=no damage to plant), CYPES (rate 130): 0
damage to plant (100=total damage to plant; 0=no damage to plant), CYPES (rate 250): 0
damage to plant (100=total damage to plant; 0=no damage to plant), CYPES (rate 500): 0
damage to plant (100=total damage to plant; 0=no damage to plant), DIGSA (rate 15): 10
damage to plant (100=total damage to plant; 0=no damage to plant), DIGSA (rate 30): 90
damage to plant (100=total damage to plant; 0=no damage to plant), DIGSA (rate 60): 100
damage to plant (100=total damage to plant; 0=no damage to plant), DIGSA (rate 130): 100
damage to plant (100=total damage to plant; 0=no damage to plant), DIGSA (rate 250): 100
damage to plant (100=total damage to plant; 0=no damage to plant), DIGSA (rate 500): 100
damage to plant (100=total damage to plant; 0=no damage to plant), ECHCG (rate 15): 30
damage to plant (100=total damage to plant; 0=no damage to plant), ECHCG (rate 30): 90
damage to plant (100=total damage to plant; 0=no damage to plant), ECHCG (rate 60): 90
damage to plant (100=total damage to plant; 0=no damage to plant), ECHCG (rate 130): 90
damage to plant (100=total damage to plant; 0=no damage to plant), ECHCG (rate 250): 90
damage to plant (100=total damage to plant; 0=no damage to plant), ECHCG (rate 500): 100
damage to plant (100=total damage to plant; 0=no damage to plant), ELEIN (rate 15): 0
damage to plant (100=total damage to plant; 0=no damage to plant), ELEIN (rate 30): 0
damage to plant (100=total damage to plant; 0=no damage to plant), ELEIN (rate 60): 0
damage to plant (100=total damage to plant; 0=no damage to plant), ELEIN (rate 130): 0
damage to plant (100=total damage to plant; 0=no damage to plant), ELEIN (rate 250): 0
damage to plant (100=total damage to plant; 0=no damage to plant), ELEIN (rate 500): 0
damage to plant (100=total damage to plant; 0=no damage to plant), EPHHL (rate 15): 0
damage to plant (100=total damage to plant; 0=no damage to plant), EPHHL (rate 30): 0
damage to plant (100=total damage to plant; 0=no damage to plant), EPHHL (rate 60): 0
damage to plant (100=total damage to plant; 0=no damage to plant), EPHHL (rate 130): 0
damage to plant (100=total damage to plant; 0=no damage to plant), EPHHL (rate 250): 0
damage to plant (100=total damage to plant; 0=no damage to plant), EPHHL (rate 500): 70
damage to plant (100=total damage to plant; 0=no damage to plant), GLXMA (rate 15): 0
damage to plant (100=total damage to plant; 0=no damage to plant), GLXMA (rate 30): 0
damage to plant (100=total damage to plant; 0=no damage to plant), GLXMA (rate 60): 0
damage to plant (100=total damage to plant; 0=no damage to plant), GLXMA (rate 130): 0
damage to plant (100=total damage to plant; 0=no damage to plant), GLXMA (rate 250): 0
damage to plant (100=total damage to plant; 0=no damage to plant), GLXMA (rate 500): 0
damage to plant (100=total damage to plant; 0=no damage to plant), IPOHE (rate 15): 0
damage to plant (100=total damage to plant; 0=no damage to plant), IPOHE (rate 30): 0
damage to plant (100=total damage to plant; 0=no damage to plant), IPOHE (rate 60): 0
damage to plant (100=total damage to plant; 0=no damage to plant), IPOHE (rate 130): 0
damage to plant (100=total damage to plant; 0=no damage to plant), IPOHE (rate 250): 0
damage to plant (100=total damage to plant; 0=no damage to plant), IPOHE (rate 500): 0
damage to plant (100=total damage to plant; 0=no damage to plant), ORYSA (rate 15): 0
damage to plant (100=total damage to plant; 0=no damage to plant), ORYSA (rate 30): 0
damage to plant (100=total damage to plant; 0=no damage to plant), ORYSA (rate 60): 0
damage to plant (100=total damage to plant; 0=no damage to plant), ORYSA (rate 130): 0
damage to plant (100=total damage to plant; 0=no damage to plant), ORYSA (rate 250): 0
damage to plant (100=total damage to plant; 0=no damage to plant), ORYSA (rate 500): 0
damage to plant (100=total damage to plant; 0=no damage to plant), PANMI (rate 15): 0
damage to plant (100=total damage to plant; 0=no damage to plant), PANMI (rate 30): 0
damage to plant (100=total damage to plant; 0=no damage to plant), PANMI (rate 60): 0
damage to plant (100=total damage to plant; 0=no damage to plant), PANMI (rate 130): 0
damage to plant (100=total damage to plant; 0=no damage to plant), PANMI (rate 250): 0
damage to plant (100=total damage to plant; 0=no damage to plant), PANMI (rate 500): 30
damage to plant (100=total damage to plant; 0=no damage to plant), SETFA (rate 15): 10
damage to plant (100=total damage to plant; 0=no damage to plant), SETFA (rate 30): 80
damage to plant (100=total damage to plant; 0=no damage to plant), SETFA (rate 60): 70
damage to plant (100=total damage to plant; 0=no damage to plant), SETFA (rate 130): 90
damage to plant (100=total damage to plant; 0=no damage to plant), SETFA (rate 250): 100
damage to plant (100=total damage to plant; 0=no damage to plant), SETFA (rate 500): 100
damage to plant (100=total damage to plant; 0=no damage to plant), SIDSP (rate 15): 0
damage to plant (100=total damage to plant; 0=no damage to plant), SIDSP (rate 30): 0
damage to plant (100=total damage to plant; 0=no damage to plant), SIDSP (rate 60): 0
damage to plant (100=total damage to plant; 0=no damage to plant), SIDSP (rate 130): 0
damage to plant (100=total damage to plant; 0=no damage to plant), SIDSP (rate 250): 0
damage to plant (100=total damage to plant; 0=no damage to plant), SIDSP (rate 500): 0
damage to plant (100=total damage to plant; 0=no damage to plant), SORVU (rate 15): 0
damage to plant (100=total damage to plant; 0=no damage to plant), SORVU (rate 130): 10
